Assay results: patent US20260070945A1, “MACROCYCLIC IMMUNOMODULATORS” (Bristol-Myers Squibb Company, priority 2022, published 2026)
Where a SMILES comes first, the peptide text is derived from it. Bridges are numbered along the chain shown (N, C = ends). [ ]: non-standard residue; d: D form. The star is where a group is joined. ξ: configuration not given here. Phe(3-CF3) = N[C@@H](Cc1cccc(C(F)(F)F)c1)C(=O)O; Phe(4-CF3) = N[C@@H](Cc1ccc(C(F)(F)F)cc1)C(=O)O; Ala(morpholin-4-yl) = N[C@@H](CN1CCOCC1)C(=O)O; Phe(4-COOH) = N[C@@H](Cc1ccc(C(=O)O)cc1)C(=O)O; Bip = N[C@@H](Cc1ccc(-c2ccccc2)cc1)C(=O)O; Phe(3-Me) = Cc1cccc(C[C@H](N)C(=O)O)c1; NH(CH2)12COOH = O=C(O)CCCCCCCCCCCCN*; Val(3-OH) = CC(C)(O)[C@H](N)C(=O)O; 4Pal = N[C@@H](Cc1ccncc1)C(=O)O; Cha = N[C@@H](CC1CCCCC1)C(=O)O; Cit = NC(=O)NCCC[C@H](N)C(=O)O; Ile(3ξ) = CCC(C)[C@H](N)C(=O)O; 12Ado = NCCCCCCCCCCCC(=O)O; NMeS = CN[C@@H](CO)C(=O)O; Carboxymethyl = O=C(O)C*; NMeA = CN[C@@H](C)C(=O)O; Orn = NCCC[C@H](N)C(=O)O; Aun = NCCCCCCCCCCC(=O)O; Dab = NCC[C@H](N)C(=O)O; AEEA = NCCOCCOCC(=O)O; Aoc = NCCCCCCCC(=O)O

Target: T1, PD-1/PD-L1 interaction (PE-labeled human PD-L1-Ig binding to Jurkat cell line over-expressing human PD-1) (Homo sapiens, UniProt Q15116)
T1 construct: expressed in transfected cells; host or cells: Jurkat
Experiment: Jurkat-PD-1 Cell Binding High-Content Screening Assay (CBA)
Settings: Jurkat-hPD-1 cells, PE-labeled PD-L1-Ig 20 nM final; read-out: Jurkat HPD1 PDL1 IC50
How it was run: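 Cells 8×10^3/well, DMEM + 10% FCS; cpd 2 h, 37 °C; PE–PD-L1-Ig 20 nM final, 1 h; PFA fix + Hoechst 33342, 3× dPBS wash; high-content imager.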

T1 sequence (Q15116 25-288): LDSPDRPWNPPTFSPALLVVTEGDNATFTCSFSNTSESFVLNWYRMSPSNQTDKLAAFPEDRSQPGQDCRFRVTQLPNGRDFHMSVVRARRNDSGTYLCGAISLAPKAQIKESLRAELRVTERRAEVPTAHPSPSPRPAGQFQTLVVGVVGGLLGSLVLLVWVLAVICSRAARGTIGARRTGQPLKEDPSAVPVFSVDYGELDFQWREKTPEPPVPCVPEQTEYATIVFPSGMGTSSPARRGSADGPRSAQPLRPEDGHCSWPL

Row | Compound | IC50
1 | CC(C)C[C@@H]1NC(=O)[C@H](Cc2c[nH]c3ccccc23)NC(=O)[C@H](CC(=O)O)NC(=O)[C@H](Cc2ccncc2)NC(=O)[C@H](Cc2ccc(OCC(=O)O)cc2)NC(=O)CSC[C@@H](C(=O)N[C@@H](CCCN)C(=O)NCCCCCCCCCCC(=O)O)NC(=O)[C@H]([C@@H](C)O)NC(=O)[C@H](C(C)C)NC(=O)[C@H](CC2CCCCC2)NC(=O)[C@H](CCN)NC(=O)[C@@H](CC(C)C)NC(=O)[C@H](C)N(C)C(=O)[C@H](C(C)C)NC(=O)[C@H](Cc2ccc(-c3ccccc3)cc2)NC1=O [Example 1331] ({CH2CO}-Y(Carboxymethyl)[4Pal]DWL[Bip]V[NMeA][dL][Dab][Cha]VTC[Orn][Aun]-OH; thioether N-14) | 12.3 nM
2 | CC(C)C[C@H]1NC(=O)[C@H](C)N(C)C(=O)[C@H](Cc2ccc(OCC(=O)O)cc2)NC(=O)[C@H](Cc2ccc(-c3ccccc3)cc2)NC(=O)[C@H](Cc2ccc(OCC(=O)O)cc2)NC(=O)[C@H](Cc2c[nH]c3ccccc23)NC(=O)[C@H](CC(=O)O)NC(=O)[C@H](Cc2ccncc2)NC(=O)[C@H](Cc2ccc(OCC(=O)O)cc2)NC(=O)CSC[C@@H](C(=O)N[C@@H](CCN)C(=O)NCCOCCOCC(=O)NCCCCCCCCCCC(=O)O)NC(=O)[C@H]([C@@H](C)O)NC(=O)[C@H](C(C)C)NC(=O)[C@H](CC2CCCCC2)NC(=O)[C@H](CC(N)=O)NC1=O [Example 1378] ({CH2CO}-Y(Carboxymethyl)[4Pal]DWY(Carboxymethyl)[Bip]Y(Carboxymethyl)[NMeA][dL]N[Cha]VTC[Dab][AEEA][Aun]-OH; thioether N-14) | 94.8 nM
3 | Cc1cccc(C[C@@H]2NC(=O)[C@H](CC(=O)O)NC(=O)[C@H](Cc3c[nH]cn3)NC(=O)[C@H](Cc3ccc(OCC(=O)O)cc3)NC(=O)CSC[C@@H](C(=O)NCCCCCCCCCCC(=O)O)NC(=O)[C@H](CCC(N)=O)NC(=O)[C@H](C(C)C)NC(=O)[C@H](CC3CCCCC3)NC(=O)[C@H](CCN)NC(=O)[C@@H](CC(C)C)NC(=O)[C@H](C)N(C)C(=O)[C@H](Cc3ccc(O)cc3)NC(=O)[C@H](Cc3ccc(-c4ccccc4)cc3)NC(=O)[C@H](CC(C)C)NC2=O)c1 [Example 2251] ({CH2CO}-Y(Carboxymethyl)HD[Phe(3-Me)]L[Bip]Y[NMeA][dL][Dab][Cha]VQC[Aun]-OH; thioether N-14) | 169 nM
4 | CC[C@H](C)[C@@H]1NC(=O)[C@H](Cc2ccc(-c3ccccc3)cc2)NC(=O)[C@H](CC(C)C)NC(=O)[C@H](Cc2c[nH]c3ccccc23)NC(=O)[C@H](CC(=O)O)NC(=O)[C@H](Cc2ccc(C(=O)O)cc2)NC(=O)[C@H](Cc2ccc(OCC(=O)O)cc2)NC(=O)CSC[C@@H](C(=O)N[C@@H](CCCN)C(=O)NCCOCCOCC(=O)NCCCCCCCCCCC(=O)O)NC(=O)[C@H](CO)NC(=O)[C@H](C(C)C)NC(=O)[C@H](CC2CCCCC2)NC(=O)[C@H](CCN)NC(=O)[C@@H](CC(C)C)NC(=O)[C@H](C)N(C)C1=O [Example 1078] ({CH2CO}-Y(Carboxymethyl)[Phe(4-COOH)]DWL[Bip]I[NMeA][dL][Dab][Cha]VSC[Orn][AEEA][Aun]-OH; thioether N-14) | 16.1 nM
5 | Cc1cccc(C[C@@H]2NC(=O)[C@H](CC(=O)O)NC(=O)[C@H](Cc3ccc(C(=O)O)cc3)NC(=O)[C@H](Cc3ccc(OCC(=O)O)cc3)NC(=O)CSC[C@@H](C(=O)NCCOCCOCC(=O)NCCCCCCCCCCC(=O)O)NC(=O)[C@H](CCCNC(=N)N)NC(=O)[C@H](C(C)C)NC(=O)[C@H](CC3CCCCC3)NC(=O)[C@H](CCN)NC(=O)[C@@H](CC(C)C)NC(=O)[C@H](CO)N(C)C(=O)[C@H](C(C)C)NC(=O)[C@H](Cc3ccc(-c4ccccc4)cc3)NC(=O)[C@H](CC(C)C)NC2=O)c1 [Example 2278] ({CH2CO}-Y(Carboxymethyl)[Phe(4-COOH)]D[Phe(3-Me)]L[Bip]V[NMeS][dL][Dab][Cha]VRC[AEEA][Aun]-OH; thioether N-14) | 34.2 nM

More lines, now with the values ahead:

Row | IC50 | Compound
6 | 15.1 nM | CC(C)C[C@H]1NC(=O)[C@H](C)N(C)C(=O)[C@H](CCCNC(N)=O)NC(=O)[C@H](Cc2ccc(-c3ccccc3)cc2)NC(=O)[C@H](Cc2ccc(C(=O)O)cc2)NC(=O)[C@H](Cc2cccc(C(F)(F)F)c2)NC(=O)[C@H](CC(=O)O)NC(=O)[C@H](Cc2ccc(OCC(=O)O)cc2)NC(=O)[C@H](CN2CCOCC2)NC(=O)CSC[C@@H](C(=O)N[C@@H](CCN)C(=O)NCCCCCCCCCCCCC(=O)O)NC(=O)[C@H](CO)NC(=O)[C@H](C(C)(C)O)NC(=O)[C@H](CC2CCCCC2)NC(=O)[C@H](CCN)NC1=O [Example 1156] ({CH2CO}-[Ala(morpholin-4-yl)]Y(Carboxymethyl)D[Phe(3-CF3)][Phe(4-COOH)][Bip][Cit][NMeA][dL][Dab][Cha][Val(3-OH)]SC[Dab]-{NH(CH2)12COOH}; thioether N-14)
7 | 223 nM | Cc1cccc(C[C@@H]2NC(=O)[C@H](CC(=O)O)NC(=O)[C@H](Cc3ccc(OCC(=O)O)cc3)NC(=O)[C@H](CCCNC(N)=O)NC(=O)CSC[C@@H](C(=O)N[C@@H](CCN)C(=O)NCCCCCCCCCCC(=O)O)NC(=O)[C@H](CO)NC(=O)[C@H](C(C)C)NC(=O)[C@H](CC3CCCCC3)NC(=O)[C@H](CCN)NC(=O)[C@@H](CC(C)C)NC(=O)[C@H](C)N(C)C(=O)[C@H](Cc3ccc(O)cc3)NC(=O)[C@H](Cc3ccc(-c4ccccc4)cc3)NC(=O)[C@H](Cc3ccc(OCC(=O)O)cc3)NC2=O)c1 [Example 1275] ({CH2CO}-[Cit]Y(Carboxymethyl)D[Phe(3-Me)]Y(Carboxymethyl)[Bip]Y[NMeA][dL][Dab][Cha]VSC[Dab][Aun]-OH; thioether N-14)
8 | 9.9 nM | CC(C)C[C@@H]1NC(=O)[C@H](Cc2c[nH]c3ccccc23)NC(=O)[C@H](CC(=O)O)NC(=O)[C@H](Cc2ccc(C(=O)O)cc2)NC(=O)[C@H](Cc2ccc(OCC(=O)O)cc2)NC(=O)CSC[C@@H](C(=O)N[C@@H](CCN)C(=O)NCCOCCOCC(=O)NCCCCCCCCCCC(=O)O)NC(=O)[C@H](CCC(N)=O)NC(=O)[C@H](C(C)(C)O)NC(=O)[C@H](CC2CCCCC2)NC(=O)[C@H](CCN)NC(=O)[C@@H](CC(C)C)NC(=O)[C@H](C)N(C)C(=O)[C@H](C(C)C)NC(=O)[C@H](Cc2ccc(-c3ccccc3)cc2)NC1=O [Example 1125] ({CH2CO}-Y(Carboxymethyl)[Phe(4-COOH)]DWL[Bip]V[NMeA][dL][Dab][Cha][Val(3-OH)]QC[Dab][AEEA][Aun]-OH; thioether N-14)
9 | 15.6 nM | CC(C)C[C@H]1NC(=O)[C@H](C)N(C)C(=O)[C@H](CCCNC(N)=O)NC(=O)[C@H](Cc2ccc(-c3ccccc3)cc2)NC(=O)[C@H](Cc2ccc(C(=O)O)cc2)NC(=O)[C@H](Cc2cccc(C(F)(F)F)c2)NC(=O)[C@H](CC(=O)O)NC(=O)[C@H](Cc2ccc(OCC(=O)O)cc2)NC(=O)[C@H](CN2CCOCC2)NC(=O)CSC[C@@H](C(=O)N[C@@H](CCN)C(=O)NCCCCCCCCCCCCC(=O)O)NC(=O)[C@H](CC(=O)O)NC(=O)[C@H](C(C)(C)O)NC(=O)[C@H](CC2CCCCC2)NC(=O)[C@H](CCN)NC1=O [Example 1154] ({CH2CO}-[Ala(morpholin-4-yl)]Y(Carboxymethyl)D[Phe(3-CF3)][Phe(4-COOH)][Bip][Cit][NMeA][dL][Dab][Cha][Val(3-OH)]DC[Dab]-{NH(CH2)12COOH}; thioether N-14)

Same assay, conditions: PE-labeled PD-L1-Ig 20 nM final, Jurkat-hPD-1 cells; read-out: Jurkat HPD1 PDL1 IC50

Row | IC50 | Compound
10 | 503 nM | CC(=O)NCC[C@H](NC(=O)[C@@H]1CSCC(=O)N[C@@H]([C@@H](C)O)C(=O)N[C@@H](Cc2ccc(OCC(=O)O)cc2)C(=O)N[C@@H](CC(=O)O)C(=O)N[C@@H](Cc2cccc(C)c2)C(=O)N[C@@H](Cc2ccc(OCC(=O)O)cc2)C(=O)N[C@@H](Cc2ccc(-c3ccccc3)cc2)C(=O)N[C@@H](Cc2ccc(OCC(=O)O)cc2)C(=O)N(C)[C@@H](C)C(=O)N[C@H](CC(C)C)C(=O)N[C@@H](CCNC(C)=O)C(=O)N[C@@H](CC2CCCCC2)C(=O)N[C@@H](C(C)C)C(=O)N[C@@H](CCC(=O)O)C(=O)N1)C(=O)NCCCCCCCC(=O)NCCCCCCCCCCCC(=O)O [Example 2676] ({CH2CO}-TY(Carboxymethyl)D[Phe(3-Me)]Y(Carboxymethyl)[Bip]Y(Carboxymethyl)[NMeA][dL][Dab](Ac)[Cha]VEC[Dab](Ac)[Aoc][12Ado]-OH; thioether N-14)
11 | 43.9 nM | CC(=O)NCCCC[C@@H]1NC(=O)[C@H](C(C)(C)O)NC(=O)[C@H](CC2CCCCC2)NC(=O)[C@H](CCN)NC(=O)[C@@H](CC(C)C)NC(=O)[C@H](C)N(C)C(=O)[C@H](CCC(N)=O)NC(=O)[C@H](Cc2ccc(-c3ccccc3)cc2)NC(=O)[C@H](Cc2ccc(C(=O)O)cc2)NC(=O)[C@H](Cc2cccc(C)c2)NC(=O)[C@H](CC(=O)O)NC(=O)[C@H](Cc2ccc(OCC(=O)O)cc2)NC(=O)[C@H](Cc2ccc(C(F)(F)F)cc2)NC(=O)CSC[C@@H](C(=O)N[C@@H](CCN)C(=O)NCCCCCCCCCCCCC(=O)O)NC1=O [Example 2619] ({CH2CO}-[Phe(4-CF3)]Y(Carboxymethyl)D[Phe(3-Me)][Phe(4-COOH)][Bip]Q[NMeA][dL][Dab][Cha][Val(3-OH)]K(Ac)C[Dab]-{NH(CH2)12COOH}; thioether N-14)
12 | 7.1 nM | CCC(C)[C@@H]1NC(=O)[C@H](Cc2ccc(-c3ccccc3)cc2)NC(=O)[C@H](C(C)C)NC(=O)[C@H](Cc2c[nH]c3ccccc23)NC(=O)[C@H](CC(=O)O)NC(=O)[C@H](Cc2ccc(C(=O)O)cc2)NC(=O)[C@H](Cc2ccc(OCC(=O)O)cc2)NC(=O)CSC[C@@H](C(=O)N[C@@H](CCN)C(=O)NCCOCCOCC(=O)NCCCCCCCCCCC(=O)O)NC(=O)[C@H](CCCNC(N)=O)NC(=O)[C@H](C(C)(C)O)NC(=O)[C@H](CC2CCCCC2)NC(=O)[C@H](Cc2cnc[nH]2)NC(=O)[C@@H](CC(C)C)NC(=O)[C@H](C)N(C)C1=O (stereo partly drawn) [Example 2523] ({CH2CO}-Y(Carboxymethyl)[Phe(4-COOH)]DWV[Bip][Ile(3ξ)][NMeA][dL]H[Cha][Val(3-OH)][Cit]C[Dab][AEEA][Aun]-OH; thioether N-14)
